Results taken from ChEMBL document CHEMBL3259791, “Discovery of (E)-3-((styrylsulfonyl)methyl)pyridine and (E)-2-((styrylsulfonyl)methyl)pyridine derivatives as anticancer agents: synthesis, structure-activity relationships, and biological activities” (J Med Chem, 2014).
Activity calls are given as the source filed them. The calls are words filed in the database; no cut-off is given here.

Columns and labels:
[1] = tested on: HCT-116; assay: Antiproliferative activity against human HCT116 cells assessed as cell growth inhibition after 72 hrs by MTT assay; assay type: functional; conditions: HCT-116, 72 h
[2] = tested on: MCF7; assay: Antiproliferative activity against human MCF7 cells assessed as cell growth inhibition after 72 hrs by MTT assay; assay type: functional; conditions: MCF7, 72 h
[3] = tested on: A2780; assay: Antiproliferative activity against human A2780 cells assessed as cell growth inhibition after 72 hrs by MTT assay; assay type: functional; conditions: A2780, 72 h
[4] = Cmax in mouse at 10 mg/kg, po after 24 hrs; assay type: ADME, organism-based; design: dose 10 mg/kg, route oral; conditions: in vivo
[5] = Elimination half life in mouse at 10 mg/kg, po after 24 hrs; assay type: ADME, organism-based; design: dose 10 mg/kg, route oral; conditions: in vivo, read-out: beta t1/2 (converted)
[6] = Oral bioavailability (0 to t) in mouse at 10 mg/kg after 24 hrs; assay type: ADME, organism-based; conditions: in vivo
[7] = AUC (0 to t) in mouse at 10 mg/kg, po after 24 hrs; assay type: ADME, organism-based; design: time < 24 hr, dose 10 mg/kg, route oral; conditions: plasma
[8] = tested on: WI-38; assay: Selectivity ratio of IC50 for human WI38 cells to IC50 for ER negative human MDA-MB-231 cells; assay type: functional
[9] = tested on: LNCaP; assay: Ratio of ON01910 IC50 to compound IC50 for AR positive human LNCAP cells; assay type: functional
[10] = Octanol-buffer partition coefficient, log D of the compound at pH 7.4 by shake-flask method; assay type: physicochemical
[11] = tested on: PANC-1; assay: Ratio of ON01910 IC50 to compound IC50 for human PANC1 cells; assay type: functional
[12] = Apparent permeability across apical to basolateral side in human Caco2 cells; assay type: ADME, cell-based; conditions: Caco-2
[13] = tested on: MCF7; assay: Selectivity ratio of IC50 for human WI38 cells to IC50 for ER positive human MCF7 cells; assay type: functional
[14] = Apparent permeability across basolateral to apical side in human Caco2 cells; assay type: ADME, cell-based; conditions: Caco-2
[15] = tested on: PANC-1; assay: Selectivity ratio of IC50 for human WI38 cells to IC50 for human PANC1 cells; assay type: functional
[16] = Cmax in mouse at 40 mg/kg, po after 24 hrs; assay type: ADME, organism-based; design: dose 40 mg/kg, route oral; conditions: in vivo
[17] = Half life in rat liver microsomes; assay type: ADME
[18] = Oral bioavailability (0 to t) in mouse at 40 mg/kg after 24 hrs; assay type: ADME, organism-based; conditions: in vivo
[19] = AUC (0 to t) in mouse at 40 mg/kg, po after 24 hrs; assay type: ADME, organism-based; design: time < 24 hr, dose 40 mg/kg, route oral; conditions: plasma
[20] = tested on: MCF7; assay: Ratio of ON01910 IC50 to compound IC50 for ER positive human MCF7 cells; assay type: functional
[21] = Antiproliferative activity against human PANC1 cells assessed as cell growth inhibition after 72 hrs by MTT assay; assay type: functional; conditions: PANC-1, 72 h
[22] = tested on: MDA-MB-231; assay: Antiproliferative activity against ER negative human MDA-MB-231 cells assessed as cell growth inhibition after 72 hrs by MTT assay; assay type: functional; conditions: MDA-MB-231, 72 h
[23] = tested on: LNCaP; assay: Antiproliferative activity against AR positive human LNCAP cells assessed as cell growth inhibition after 72 hrs by MTT assay; assay type: functional
[24] = tested on: MCF7; assay: Antiproliferative activity against ER positive human MCF7 cells assessed as cell growth inhibition after 72 hrs by MTT assay; assay type: functional; conditions: MCF7, 72 h
[25] = tested on: DU-145; assay: Antiproliferative activity against AR negative human DU145 cells assessed as cell growth inhibition after 72 hrs by MTT assay; assay type: functional; conditions: DU-145, 72 h
[26] = tested on: A2780; assay: Selectivity ratio of IC50 for human WI38 cells to IC50 for human A2780 cells; assay type: functional
[27] = tested on: HCT-116; assay: Ratio of ON01910 IC50 to compound IC50 for human HCT116 cells; assay type: functional
[28] = tested on: WI-38; assay: Antiproliferative activity against human WI38 cells assessed as cell growth inhibition after 72 hrs by MTT assay; assay type: functional; conditions: WI-38, 72 h
[29] = Oral bioavailability (0 to infinity) in mouse at 40 mg/kg after 24 hrs; assay type: ADME, organism-based; conditions: in vivo
[30] = tested on: LNCaP; assay: Selectivity ratio of IC50 for human WI38 cells to IC50 for AR positive human LNCAP cells; assay type: functional
[31] = tested on: DU-145; assay: Selectivity ratio of IC50 for human WI38 cells to IC50 for AR negative human DU145 cells; assay type: functional
[32] = tested on: HeLa; assay: Ratio of ON01910 IC50 to compound IC50 for human HeLa cells; assay type: functional
[33] = tested on: HeLa; assay: Selectivity ratio of IC50 for human WI38 cells to IC50 for human HeLa cells; assay type: functional
[34] = Aqueous solubility of the compound by turbidimetric solubility assay; assay type: physicochemical; conditions: buffer
[35] = tested on: DU-145; assay: Ratio of ON01910 IC50 to compound IC50 for AR negative human DU145 cells; assay type: functional
[36] = tested on: A2780; assay: Ratio of ON01910 IC50 to compound IC50 for human A2780 cells; assay type: functional
[37] = Dissociation constant, pKa of the compound by pH-metric method; assay type: physicochemical
[38] = tested on: MDA-MB-231; assay: Ratio of ON01910 IC50 to compound IC50 for ER negative human MDA-MB-231 cells; assay type: functional
[39] = target: Voltage-gated inwardly rectifying potassium channel KCNH2 (Homo sapiens, UniProt Q12809); assay: Inhibition of human ERG expressed in CHO cells
Sequence of Voltage-gated inwardly rectifying potassium channel KCNH2 (Q12809 whole entry): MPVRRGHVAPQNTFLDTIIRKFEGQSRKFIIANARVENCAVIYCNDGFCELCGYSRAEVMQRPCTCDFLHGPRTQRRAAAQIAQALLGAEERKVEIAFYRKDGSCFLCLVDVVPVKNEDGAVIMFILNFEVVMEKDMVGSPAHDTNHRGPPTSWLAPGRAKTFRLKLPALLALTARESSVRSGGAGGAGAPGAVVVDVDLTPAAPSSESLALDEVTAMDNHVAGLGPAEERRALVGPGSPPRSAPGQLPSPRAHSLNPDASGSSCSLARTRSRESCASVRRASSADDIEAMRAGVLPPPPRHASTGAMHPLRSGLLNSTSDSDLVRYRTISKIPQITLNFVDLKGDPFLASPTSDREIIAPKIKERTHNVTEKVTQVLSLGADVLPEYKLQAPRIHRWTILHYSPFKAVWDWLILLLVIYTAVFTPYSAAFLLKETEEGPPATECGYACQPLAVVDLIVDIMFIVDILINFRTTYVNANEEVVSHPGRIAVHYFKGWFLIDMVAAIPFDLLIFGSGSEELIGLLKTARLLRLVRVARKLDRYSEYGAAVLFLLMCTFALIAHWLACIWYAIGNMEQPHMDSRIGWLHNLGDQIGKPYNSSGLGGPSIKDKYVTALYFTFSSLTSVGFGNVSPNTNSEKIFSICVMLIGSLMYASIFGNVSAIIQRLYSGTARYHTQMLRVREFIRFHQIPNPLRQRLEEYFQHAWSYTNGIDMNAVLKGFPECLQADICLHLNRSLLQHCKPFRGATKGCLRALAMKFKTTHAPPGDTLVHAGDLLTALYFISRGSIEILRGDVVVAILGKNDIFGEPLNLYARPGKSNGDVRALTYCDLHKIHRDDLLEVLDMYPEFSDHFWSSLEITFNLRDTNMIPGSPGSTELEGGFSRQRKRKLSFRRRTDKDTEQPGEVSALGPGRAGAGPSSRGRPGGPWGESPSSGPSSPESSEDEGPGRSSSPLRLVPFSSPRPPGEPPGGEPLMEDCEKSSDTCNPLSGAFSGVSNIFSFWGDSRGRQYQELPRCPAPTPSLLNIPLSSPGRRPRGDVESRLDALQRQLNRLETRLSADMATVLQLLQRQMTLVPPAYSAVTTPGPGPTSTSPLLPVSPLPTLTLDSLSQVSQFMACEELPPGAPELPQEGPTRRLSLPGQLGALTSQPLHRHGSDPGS

[40] = tested on: HCT-116; assay: Selectivity ratio of IC50 for human WI38 cells to IC50 for human HCT116 cells; assay type: functional
[41] = tested on: HeLa; assay: Antiproliferative activity against human HeLa cells assessed as cell growth inhibition after 72 hrs by MTT assay; assay type: functional
[42] = Elimination half life in mouse at 40 mg/kg, po after 24 hrs; assay type: ADME, organism-based; design: dose 40 mg/kg, route oral; conditions: in vivo, read-out: beta t1/2 (converted)
[43] = tested on: HCT-116; assay: Antitumor activity against human HCT116 cells xenografted in mouse assessed as delay in tumor growth at 33.3 mg/kg, ip daily 5 days/week for 2 weeks; assay type: functional, organism-based; design: dose 33.3 mg/kg
[44] = tested on: HCT-116; assay: Antitumor activity against human HCT116 cells xenografted in mouse assessed as delay in tumor growth at 100 mg/kg, ip daily 5 days/week for 2 weeks; assay type: functional, organism-based; design: dose 100 mg/kg
[45] = tested on: A2780; assay: Induction of apoptosis in human A2780 cells assessed as caspase-3/7 activation at […] after 24 hrs by using Apo-ONE homogeneous caspase-3/7 kit; assay type: functional, cell-based
[46] = tested on: WI-38; assay: Induction of apoptosis in human WI38 cells assessed as caspase-3/7 activation up to 1 uM after 24 hrs by using Apo-ONE homogeneous caspase-3/7 kit; assay type: functional, cell-based
[47] = tested on: A2780; assay: Reduction in Mcl1 level in human A2780 cells at […] after 24 hrs by Western blot analysis; assay type: functional, cell-based
[48] = tested on: A2780; assay: Reduction in CDC25C level in human A2780 cells at […] after 24 hrs by Western blot analysis; assay type: functional, cell-based

Compound: COc1cc(OC)c(/C=C/S(=O)(=O)Cc2ccc(OC)c([N+](=O)[O-])n2)c(OC)c1
- GI50 [1]: > 10000 nM
- GI50 [2]: 9970 nM
- GI50 [3]: > 10000 nM

Compound: COc1cc(OC)c(/C=C/S(=O)(=O)Cc2cnc(OC)c(NCC(=O)O)c2)c(OC)c1
- GI50 [1]: 410 nM
- GI50 [3]: 376 nM

Compound: COc1cc(OC)c(/C=C/S(=O)(=O)Cc2cnc(OC)c(NCC(N)=O)c2)c(OC)c1
- GI50 [1]: 6590 nM
- GI50 [2]: > 10000 nM

Compound: CCN(C(C)=O)c1cc(CS(=O)(=O)/C=C/c2c(OC)cc(OC)cc2OC)cnc1OC
- GI50 [1]: > 10000 nM
- GI50 [2]: > 10000 nM

Compound: CCOC(=O)CNc1cc(CS(=O)(=O)/C=C/c2c(OC)cc(OC)cc2OC)cnc1OC
- GI50 [1]: 517 nM
- GI50 [2]: 940 nM
- GI50 [3]: 409 nM

Compound: COc1cc(OC)c(/C=C/S(=O)(=O)Cc2ccc(OC)c(NC(C)=O)n2)c(OC)c1
- GI50 [1]: 320 nM
- GI50 [2]: 660 nM
- GI50 [3]: 500 nM

Compound: COc1cc(OC)c(/C=C/S(=O)(=O)Cc2ccc(OC)c(NCC(=O)[O-])c2)c(OC)c1.[Na+] [RIGOSERTIB SODIUM]
- Cmax [4]: 400 nM
- half-life [5]: 2.6 h
- bioavailability [6]: 9%
- AUC(0-t) at 24 h [7]: 1 µM·h

Compound: COc1cc(OC)c(/C=C/S(=O)(=O)Cc2cnc(OC)c(NC(C)=O)c2)c(OC)c1
- GI50 [1]: 8220 nM
- GI50 [2]: 7500 nM
- GI50 [3]: 7100 nM

Compound: COc1cc(OC)c(/C=C/S(=O)(=O)Cc2ccc(OC)c(NCC(=O)O)n2)c(OC)c1
- GI50 [1]: 329 nM
- GI50 [2]: 545 nM
- GI50 [3]: 253 nM

Compound: COc1cc(OC)c(/C=C/S(=O)(=O)Cc2cnc(OC)c([N+](=O)[O-])c2)c(OC)c1
- GI50 [1]: 7430 nM
- GI50 [2]: 5220 nM
- GI50 [3]: 7210 nM

Compound: COc1cc(OC)c(/C=C/S(=O)(=O)Cc2cnc(OC)c(N)c2)c(OC)c1
- Ratio IC50 [8]: >1400
- Ratio IC50 [9]: 10
- logD [10]: 2.34
- Ratio IC50 [11]: 10
- Papp A→B [12]: 42.3 ×10⁻⁶ cm/s
- Ratio IC50 [13]: >1400
- Papp B→A [14]: 21.5 ×10⁻⁶ cm/s
- Ratio IC50 [15]: >1400
- Cmax [16]: 3000 nM
- GI50 [1]: 5 nM
- half-life [17]: 0.333 h
- bioavailability [18]: 28%
- AUC(0-t) at 24 h [19]: 24.6 µM·h
- Ratio IC50 [20]: 10
- GI50 [21]: < 1 nM
- GI50 [22]: 6 nM
- GI50 [2]: 6 nM
- GI50 [23]: 3 nM
- GI50 [24]: 6 nM
- GI50 [25]: 5 nM
- Ratio IC50 [26]: >1400
- Ratio IC50 [27]: 10
- GI50 [28]: > 10000 nM
- bioavailability [29]: 100%
- Ratio IC50 [30]: >1400
- Ratio IC50 [31]: >1400
- Ratio IC50 [32]: 10
- Ratio IC50 [33]: >1400
- solubility kinetic [34]: > 100 µM
- Ratio IC50 [35]: 10
- Ratio IC50 [36]: 10
- pKa [37]: 2.39
- Ratio IC50 [38]: 10
- IC50 [39]: > 25000 nM
- Ratio IC50 [40]: >1400
- GI50 [41]: 4 nM
- half-life [42]: 61.8 h
- GI50 [3]: 5 nM

Compound: COc1cc(OC)c(/C=C/S(=O)(=O)Cc2cnc(OC)c(NS(C)(=O)=O)c2)c(OC)c1
- Activity [43]: Active
- logD [10]: 1.52
- Papp A→B [12]: 8.9 ×10⁻⁶ cm/s
- Papp B→A [14]: 47.1 ×10⁻⁶ cm/s
- GI50 [1]: 570 nM
- half-life [17]: 1.17 h
- Cmax [4]: 6300 nM
- GI50 [21]: 875 nM
- GI50 [22]: 671 nM
- GI50 [2]: 780 nM
- GI50 [24]: 780 nM
- half-life [5]: 3 h
- GI50 [28]: > 10000 nM
- AUC(0-t) at 24 h [7]: 7.2 µM·h
- solubility kinetic [34]: > 100 µM
- pKa [37]: 7.66
- GI50 [41]: 682 nM
- Activity [44]: Active
- GI50 [3]: 317 nM

Compound: COc1cc(OC)c(/C=C/S(=O)(=O)Cc2ccc(OC)c(NCC(=O)O)c2)c(OC)c1
- Activity [45]: Active
- Activity [46]: inactive
- inhibition [47]: Active
- inhibition [48]: Active

Compound: COc1cc(OC)c(C(C(c2cnc(OC)c([N+](=O)[O-])c2)S(C)(=O)=O)N2CCCCC2)c(OC)c1 (stereo not given)
- GI50 [1]: 4400 nM
- GI50 [2]: 6410 nM

Compound: CCOC(=O)CNc1nc(CS(=O)(=O)/C=C/c2c(OC)cc(OC)cc2OC)ccc1OC
- GI50 [1]: 5450 nM
- GI50 [2]: 5710 nM
- GI50 [3]: 6910 nM

Compound: CCS(=O)(=O)Nc1cc(CS(=O)(=O)/C=C/c2c(OC)cc(OC)cc2OC)cnc1OC
- GI50 [1]: > 10000 nM
- GI50 [2]: > 10000 nM
- GI50 [3]: > 10000 nM

Compound: CCCS(=O)(=O)Nc1cc(CS(=O)(=O)/C=C/c2c(OC)cc(OC)cc2OC)cnc1OC
- GI50 [1]: > 10000 nM
- GI50 [2]: > 10000 nM
- GI50 [3]: > 10000 nM
